# Target: T1, human P2X3 receptor (Homo sapiens, UniProt P56373)
# T1 construct: expressed in transfected cells; host or cells: CHO-K1
# T1 sequence (P56373 1-397): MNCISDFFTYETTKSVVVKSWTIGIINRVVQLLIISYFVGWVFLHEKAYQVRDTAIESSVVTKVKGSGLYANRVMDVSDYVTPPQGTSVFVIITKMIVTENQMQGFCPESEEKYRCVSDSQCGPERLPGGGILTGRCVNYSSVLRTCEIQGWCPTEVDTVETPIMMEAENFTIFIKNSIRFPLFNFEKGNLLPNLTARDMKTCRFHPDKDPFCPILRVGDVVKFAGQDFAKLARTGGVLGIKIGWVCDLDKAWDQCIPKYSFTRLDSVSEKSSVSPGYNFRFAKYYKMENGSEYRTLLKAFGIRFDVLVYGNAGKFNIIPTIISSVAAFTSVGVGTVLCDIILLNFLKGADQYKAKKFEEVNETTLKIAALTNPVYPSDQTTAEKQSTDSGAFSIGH
# Test: Calcium luminescence (photoprotein) assay in CHO-K1 cells co-expressing human P2X3 receptor, α,β-Met-ATP stimulation, FLEXSTATION readout
# Assay type: cell-based
# Details: Table 9; human P2X3 receptor antagonist activity, CHO-K1 cells, α,β-Met-ATP; read-out: h-P2X3 IC50
# Procedure, shortened: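 CHO-K1 cells co-expressing human P2X3 and a Ca2+-sensitive photoprotein, loaded with coelenterazine in Tyrode's buffer (pH 7.4) for 4 h at 37 °C. Compounds injected 4 min before α,β-Met-ATP stimulation; luminescence recorded, IC50 and pseudo-Hill slope from nonlinear regression of inhibition curves.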
row,Structure (SMILES),IC50
1,"CC1(C)CN=C2c3ncc(NCCO)cc3N(Cc3ccc(Cl)cc3)C(=O)N2C1 [Example 143, 5-(4-chlorobenzyl)-3-[(2-hydroxyethyl)amino]-9,9-dimethyl-5,8,9,10-tetrahydro-6H-pyrido[2,3-e]pyrimido[1,2-c]pyrimidin-6-one]",2260 nM
2,"COc1cc(CN2C(=O)N3CC(C)(C)CN=C3c3ncc(NCCO)cc32)cc(OC)c1 [Example 144, 5-(3,5-dimethoxybenzyl)-3-[(2-hydroxyethyl)amino]-9,9-dimethyl-5,8,9,10-tetrahydro-6H-pyrido[2,3-e]pyrimido[1,2-c]pyrimidin-6-one]",2480 nM
3,"COc1cc(CN2C(=O)N3CC(C)CN=C3c3ncc(N4CCOCC4)cc32)cc(OC)c1 (centres unmarked) [Example 145, 5-(3,5-dimethoxybenzyl)-9-methyl-3-(morpholin-4-yl)-5,8,9,10-tetrahydro-6H-pyrido[2,3-e]pyrimido[1,2-c]pyrimidin-6-one]",1780 nM
4,"COc1cc(CN2C(=O)N3CC(C)(C)CN=C3c3ncc(N4CCOCC4)cc32)cc(OC)c1 [Example 147, 5-(3,5-dimethoxybenzyl)-9,9-dimethyl-3-(morpholin-4-yl)-5,8,9,10-tetrahydro-6H-pyrido[2,3-e]pyrimido[1,2-c]pyrimidin-6-one]",2440 nM
5,"CCC1CCN=C2c3ncc(N4CCOCC4)cc3N(Cc3cc(OC)cc(OC)c3)C(=O)N21 (centres unmarked) [Example 151, 5-(3,5-dimethoxybenzyl)-8-ethyl-3-(morpholin-4-yl)-5,8,9,10-tetrahydro-6H-pyrido[2,3-e]pyrimido[1,2-c]pyrimidin-6-one]",938 nM
6,"CCC1CCN2C(=O)N(Cc3ccc(Cl)cc3)c3cc(N4CCOCC4)cnc3C2=N1 (centres unmarked) [Example 154, 5-(4-chlorobenzyl)-10-ethyl-3-(morpholin-4-yl)-5,8,9,10-tetrahydro-6H-pyrido[2,3-e]pyrimido[1,2-c]pyrimidin-6-one]",1050 nM
7,"CCC1CCN=C2c3ncc(N4CCOCC4)cc3N(Cc3ccc(Cl)cc3)C(=O)N21 (centres unmarked) [Example 155, 5-(4-chlorobenzyl)-8-ethyl-3-(morpholin-4-yl)-5,8,9,10-tetrahydro-6H-pyrido[2,3-e]pyrimido[1,2-c]pyrimidin-6-one]",2170 nM
8,"COc1ccc(Cn2c(=O)n3nc(CC(C)C)nc3c3ncc(N4CCOCC4)cc32)cc1 [Example 156, 6-(4-methoxybenzyl)-2-(2-methylpropyl)-8-(morpholin-4-yl)pyrido[2,3-e][1,2,4]triazolo[1,5-c]pyrimidin-5(6H)-one]",608 nM
9,"COc1ccc(Cn2c(=O)n3nc(C(C)(C)C)nc3c3ncc(N4CCOCC4)cc32)cc1 [Example 157, 2-tert-butyl-6-(4-methoxybenzyl)-8-(morpholin-4-yl)pyrido[2,3-e][1,2,4]triazolo[1,5-c]pyrimidin-5(6H)-one]",495 nM
10,"COc1cc(CN2C(=O)N3CC(C)(C)N=C3c3ncc(N4CCOCC4)cc32)cc(OC)c1 [Example 161, 6-(3,5-dimethoxybenzyl)-2,2-dimethyl-8-(morpholin-4-yl)-2,6-dihydroimidazo[1,2-c]pyrido[2,3-e]pyrimidin-5(3H)-one]",4290 nM
11,"CC(C)C1C(=O)N=C2c3ncc(N4CCOCC4)cc3N(Cc3ccc(Cl)cc3)C(=O)N21 (centres unmarked) [Example 163, 6-(4-chlorobenzyl)-8-(morpholin-4-yl)-3-(propan-2-yl)imidazo[1,2-c]pyrido[2,3-e]pyrimidine-2,5(3H,6H)-dione]",278 nM
12,"COc1ccc(CN2C(=O)N3C(=NC(=O)C3C(C)C)c3ncc(N4CCOCC4)cc32)cc1 (centres unmarked) [Example 164, 6-(4-methoxybenzyl)-8-(morpholin-4-yl)-3-(propan-2-yl)imidazo[1,2-c]pyrido[2,3-e]pyrimidine-2,5(3H,6H)-dione]",188 nM
13,"CCN(CC)c1cnc2c(c1)N(Cc1ccc(OC)cc1)C(=O)N1C2=NC(=O)C1C(C)(C)C (centres unmarked) [Example 165, 3-tert-butyl-8-(diethylamino)-6-(4-methoxybenzyl)imidazo[1,2-c]pyrido[2,3-e]pyrimidine-2,5(3H,6H)-dione]",702 nM
14,"COc1ncc2c(n1)c1nnc(C(C)(C)C)n1c(=O)n2Cc1ccc(Cl)cc1 [Example 168, 3-tert-butyl-6-(4-chlorobenzyl)-9-methoxypyrimido[4,5-e][1,2,4]triazolo[4,3-c]pyrimidin-5(6H)-one]",1390 nM
15,"CC(C)c1nnc2c3ncc(N4CCC(O)CC4)cc3n(Cc3ccc(Cl)cc3)c(=O)n12 [Example 171, 6-(4-chlorobenzyl)-8-(4-hydroxypiperidin-1-yl)-3-(propan-2-yl)pyrido[2,3-e][1,2,4]triazolo[4,3-c]pyrimidin-5(6H)-one]",700 nM
16,"CC(C)(C)c1nnc2c3ncc(N4CCOCC4)cc3n(Cc3ccc(Cl)cn3)c(=O)n12 [Example 173, 3-tert-butyl-6-[(5-chloropyridin-2-yl)methyl]-8-(morpholin-4-yl)pyrido[2,3-e][1,2,4]triazolo[4,3-c]pyrimidin-5(6H)-one]",2.59 nM
17,"COc1ccc(Cn2c(=O)n3c(C4(C)CC4)nnc3c3ncc(N4CCOCC4)cc32)cc1 [Example 174, 6-(4-methoxybenzyl)-3-(1-methylcyclopropyl)-8-(morpholin-4-yl)pyrido[2,3-e][1,2,4]triazolo[4,3-c]pyrimidin-5(6H)-one]",78.5 nM
18,"COc1ccc(Cn2c(=O)n3c(C(C)(C)C)nnc3c3ncc(N)cc32)cc1 [Example 176, 8-amino-3-tert-butyl-6-(4-methoxybenzyl)pyrido[2,3-e][1,2,4]triazolo[4,3-c]pyrimidin-5(6H)-one]",2570 nM
19,"O=c1n(Cc2ccc(Cl)cc2)c2cc(N3CCOCC3)cnc2c2nnc(CC3CCOCC3)n12 [Example 186, 6-(4-chlorobenzyl)-8-(morpholin-4-yl)-3-(tetrahydro-2H-pyran-4-ylmethyl)pyrido[2,3-e][1,2,4]triazolo[4,3-c]pyrimidin-5(6H)-one]",289 nM
20,"O=c1n(Cc2ccc(Cl)cc2)c2cc(N3CCOCC3)cnc2c2nnc(COC3CCOCC3)n12 [Example 188, 6-(4-chlorobenzyl)-8-(morpholin-4-yl)-3-[(tetrahydro-2H-pyran-4-yloxy)methyl]pyrido[2,3-e][1,2,4]triazolo[4,3-c]pyrimidin-5(6H)-one]",528 nM

# From patent US11999732B2, “P2X3 receptor antagonists” (RECORDATI INDUSTRIA CHIMICA E FARMACEUTICA SPA, priority 2018, dated 2024)
